Experimental data: patent US11999702B1, “4,5-bis(4-chlorophenyl)-1-hexyl-2-(3,4-dimethoxyphenyl)-1H-imidazole as an antimicrobial compound” (KING FAISAL UNIVERSITY, priority 2023, dated 2024)

How the values were obtained:
Format in all cases: cell-based
Conditions in all cases: after 10, 20, 40 and 60 minutes at all dilutions 1:100, 1:200, 1:400, 1:800
Escherichia coli = assay: Antimicrobial testing by agar dilution, Escherichia coli
Protocol: (§1) The antimicrobial properties of the 4,5-bis(4-chlorophenyl)-1-hexyl-2-(3,4-dimethoxyphenyl)-1H-imidazole (5) were studied by the method of agar dilution. Test solutions of each compound were prepared in concentration of 1% using dimethylformamide as a solvent then they are diluted in physiological solution to obtain the final experimental dilutions 1:100, 1:200, 1:400, 1:800. The effect of these substances were compared with furacillin in a controllable study. The testing microbes used were gram positive bacteria Staphylococcus aureus, gram negative bacteria Escherichia coli, Pseudomonas aeruginosa and Candida albicans fungi were taken. The experiments used for this survey were meat-pentonlu agar (EPA) for cultivation of bacteria and Saburo environment for fungi. Each experiment used 1 ml of test solution on each plate 500 min. Add 2 drops of emulsified with microbes feel. All experimental samples were taken from the agar after 10, 20, 40, 60 minutes in the environment on the basis of Patrk planted. Bacteria were cultivated at a temperature of 37° C. for 1 day and the mushroom was kept in a thermostat for […] at a temperature of 28° C. in the. Then results were checked.

Candida albicans = assay: Antimicrobial testing by agar dilution, Candida albicans
Protocol: as §1

Pseudomonas aeruginosa = assay: Antimicrobial testing by agar dilution, Pseudomonas aeruginosa
Protocol: as §1

Staphylococcus aureus = assay: Antimicrobial testing by agar dilution, Staphylococcus aureus
Protocol: as §1

Measured: inhibition activity

CCCCCCn1c(-c2ccc(OC)c(OC)c2)nc(-c2ccc(Cl)cc2)c1-c1ccc(Cl)cc1 [4,5-bis(4-chlorophenyl)-1-hexyl-2-(3,4-dimethoxyphenyl)-1H-imidazole]
highest inhibition activity: all assays above
